The values below come from US5252571A, “1,4-benzothiazine-2-acetic acid derivatives” (Sapporo Breweries Limited, priority 1990, dated 1993).

For one data set, the target named is T1, aldose reductase (Sus scrofa, UniProt P80276).
T1 construct: porcine crystalline lens stored at -80° C. was homogenized in distilled water; from tissue; host or cells: porcine crystalline lens
Put plainly: Aldose reductase inhibitory activity (porcine crystalline lens enzyme). The data set is classed as biochemical. Here is the method: Aldose reductase enzyme standard was prepared from porcine crystalline lens by the method of Hayman et al. (cf., S. Hayman et al., Journal of Biological Chemistry, 240, 877-882, 1965). That is, porcine crystalline lens stored at -80° C. was homogenized in distilled water followed by centrifugation at 10,000 XG for 15 minutes. The supernatant was dissolved to make 40% ammonium sulfate solution. The supernatant centrifuged at 10,000 XG for further 10 minutes was dialyzed to 0.05 M sodium chloride solution overnight. The thus obtained dialysate was used as the enzyme standard.
The activity of aldose reductase was determined by the method of Hayman et al. supra. That is, 25 μl of the enzyme solution described above and […] of a drug solution in 1% DMSO having various concentrations were added to 200 μl of 40 mM phosphate buffer (pH 6.2) prepared to contain […] lithium sulfate and 0.1 MM NADPH (reduced nicotinamide adenine dinucleotide phosphate) in final concentrations and Containing 3 mM d1-glyceraldehyde as substrate, respectively. Thereafter, the mixture was reacted at 25° C. for 2 minutes and change in absorbance at 340 nm was determined using COBAS FARA II (Roche Co.).

In data set [1] the test system is sorbitol in lens withdrawn from rat. Put plainly: Activity for preventing accumulation of sorbitol in lens withdrawn from rat. The note with it: 50 mM glucose, 10^-6 M test drug, 4 hours, 1% DMSO = 100%, read-out: Sorbitol Content (%). It is filed as cell-based, SD rat. On the procedure: 2) Activity for preventing accumulation of sorbitol in lens withdrawn from rat
The lens withdrawn from SD rats of 7 to 8 weeks age was incubated in 2.0 ml of Kreb's solution (pH 7. 4) containing 50 mM glucose and 10^-6 M test drug for 4 hours. The sorbitol content formed in the tissue was assayed by the enzyme method of Bergmeyer et al. [cf., H. Y. Bergmeyer et al., Methods of Enzymatic Analysis, 3, 1323-1330, 19741 using SDH (Sorbitol dehydrogenase) and AND (β-nicotinamide adenine dinucleotide). The sorbitol content was made 100% when 1% DMSO as a solvent was added in place of the drug and the activity of the drug was determined.

Data set [2] concerns tissue sorbitol in streptozotocin-induced diabetic rats. Put plainly: Inhibitory activity of accumulation of tissue sorbitol in streptozotocin-induced diabetic rats. The data set is classed as in vivo, Sprague-Dawley rats. Particulars: 30 mg/kg oral 4, 8 and 24 hours after streptozotocin, control = 100%, Tukey's test *p < 0.05, **p < 0.01; for Accumulation of Tissue Sorbitol (%), Nerve: sciatic nerve. On the procedure: 4) Inhibitory activity of accumulation of tissue sorbitol in streptozatocini-induced diabetic rats.
Sprague-Dawley rats (male,6 weeks of age, one group composed of 5 to 6 rats), fasted overnight, were made diabetic by single intravenous injection of 60 mg/kg body weight of streptozotocin (SIGMA Co. ) , which had been freshly dissolved in normal saline solution.
The compound was orally administered in the form of 0.5% carboxymethylcellulose suspension in a dose of 30 mg/kg 4, 8 and 24 hours after the injection of streptozotocin. During the test, rats were free access to feed and water. Three hours after the final administration, the sorbitol contens in tissues (red blood cell, sciatic nerve, lens) Were determined by the enzyme method of Bergmeyer et al. [cf., H. Y. Bergmeyer et al., Methods of Enzymatic Analysis, 3, 1323-1330, 1974], using SDH (sorbitol dehydrogenase) and AND (β-nicotinamide adenine dinucleotide). The results are shown by percentage (%) when the value obtained with control group administered with 0.5% carboxymethylcellulose solution as a solvent instead of the compound was made 100%.

The target in data set [3] is T2, human placenta aldose reductase (Homo sapiens, UniProt P15121).
T2 construct: The aldose reductase enzyme standard was prepared from human placenta; from tissue; host or cells: human placenta
Put plainly: Aldose reductase of human origin inhibitory activity. The data set is classed as biochemical. The note with it: for IC50: d1-glyceraldehyde 3 mM, pH 6.2, 25° C., read-out: IC50 HPAR (human placenta aldose reductase; head prints HPAP); for Ratio HPALR/HPAR: ratio of IC50 aldehyde reductase to aldose reductase, human placenta. Here is the method: (§1) That is, human placenta stored at -80° C. was homogenized in distilled water followed by centrifugation at 10,000 XG for 15 minutes. […] The dialysate was applied to DEAE-cellulose column. The fraction containing aldose reductase activity eluted by salt concentration gradient was dialyzed and used as aldose reductase enzyme standard. Furthermore, after fractionation with ammonium sulfate solution, the dialysate was applied to Red Sepharose CL-6B, the fraction containing aldehyde reductase activity eluted by salt concentration gradient was dialyzed and used as aldehyde reductase enzyme standard.
That is, 25 μl of the enzyme solution described above and 25 μl of a drug solution in 1% DMSO having various concentrations were added to 200 μl of 40 Mm phosphate buffer (pH 6.2) prepared to contain 0.4 M lithium sulfate and 0.1 mM NADPH (reduced nicotinamide adenine dinucleotide phosphate) in final concentrations and containing 3 mM d1-glyceraldehyde as substrate, respectively.

Data set [4] deals with T3, human placenta aldehyde reductase (Homo sapiens, UniProt P14550).
T3 construct: the fraction containing aldehyde reductase activity eluted by salt concentration gradient was dialyzed and used as aldehyde reductase enzyme standard; from tissue; host or cells: human placenta
T3 sequence (P14550 1-325): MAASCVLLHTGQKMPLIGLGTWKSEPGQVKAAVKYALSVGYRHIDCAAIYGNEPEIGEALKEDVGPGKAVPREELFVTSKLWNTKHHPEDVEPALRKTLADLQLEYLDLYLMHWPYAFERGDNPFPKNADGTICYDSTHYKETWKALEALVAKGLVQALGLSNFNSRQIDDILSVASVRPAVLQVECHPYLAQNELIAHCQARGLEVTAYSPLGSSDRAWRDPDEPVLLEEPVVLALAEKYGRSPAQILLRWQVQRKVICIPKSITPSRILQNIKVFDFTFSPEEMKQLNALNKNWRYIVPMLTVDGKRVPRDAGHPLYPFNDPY
Put plainly: Aldehyde reductase of human origin inhibitory activity (specificity). The data set is classed as biochemical. Particulars: 15 mM glucuronate, pH 7.0, read-out: 10 μM inhibition % HPALR. Here is the method:
as §1
That is, the activity was determined in a manner similar to the case of determining aldose reductase activity, using 200 mM phosphate buffer (pH 7.0) prepared to contain 0.1 mM NADPH in a final concentration and 15 mM glucuronate as substrate.

The next data set concerns ICR strain mice. Put plainly: Safety test, single oral administration in mice with 14 days observation. The data set is classed as in vivo. The note with it: 300 mg/kg oral, male ICR mice. On the procedure: Next, safety of the compounds of the present invention was verified by the following test.
After normal ICR strain mice (male, 7 weeks age, 5 mice being into one group) was fasted for 18 hours, each compound (300 mg/kg) of Examples 1311, 132, 134, 156, 173, 179, 183 and 188 was orally administered in the form of 0.5% carboxymethylcellulose suspension. In the control group, 0.5% carboxymethylcellulose solution alone was orally administered. […] During the observation, mice were free access to feed and water.

Where [5] appears, read: d1-glyceraldehyde 3 mM, pH 6.2, 25° C., 2 minutes.

Read-outs that look alike come from different tables or passages of the source.

On aldose reductase (setting [5]), `CC(C)c1cccc2c1OC(C(C)C)C(=S)N2CC(=O)O` (stereo not drawn) [Compound A, 3,4-dihydro-2,8-diisopropyl-3-thioxo-2H-1,4-benzoxazine-4-acetic acid, reference compound] came in with an IC50 of 21 nM. Moreover, the activity at 1 µM in data set [1] turned out to be 56%. Further, in data set [2], the “Accumulation of Tissue Sorbitol (%), Lens” value (shortened to “Accumulation … (%), Lens”) is reported as 87.3%; the “Accumulation of Tissue Sorbitol (%), Red Blood Cell” value (from here on “Accumulation … (%), Red Blood Cell”) came to 53.7%; the “Accumulation of Tissue Sorbitol (%), Nerve” value (shortened to “Accumulation … (%), Nerve”) came to 54.9%.
As for `Cc1ccc2c(c1)N(Cc1nc3c(F)c(F)cc(F)c3s1)C(=O)C(CC(=O)O)S2` (stereo not drawn) [Example 165, 2-[4-(4,5,7-Trifluorobenzothiazol-2-yl)methyl-6-methyl-3,4-dihydro-3-oxo-2H-1,4-benzothiazin-2-yl]acetic acid], in data set [3], the IC50 was determined as 12 nM and the “Ratio HPALR/HPAR” value is given as over 833. For the same compound, the inhibition (commonly how much of the control response was suppressed) at 10 µM in data set [4] was determined as 32.9%.
The matching figures for `O=C(O)CC1Sc2c(F)cccc2N(Cc2nc3c(Cl)c(Cl)ccc3s2)C1=O` (stereo not drawn) [Example 167, 2-[4-(4,5-Dichlorobenzothiazol-2-yl)methyl-8-fluoro-3,4-dihydro-3-oxo-2H-1,4-benzothiazin-2-yl]acetic acid]: 13 nM, over 769 and 28.6%.
As for `O=C(O)CC1Sc2ccccc2N(Cc2nc3c(F)c(F)cc(F)c3s2)C1=O` (stereo not drawn) [Example 183, 2-[4-(4,5,7-Trifluorobenzothiazol-2-yl)methyl-3,4-dihydro-3-oxo-2H-1,4-benzothiazin-2-yl]acetic acid], the IC50 on aldose reductase (read-out: IC50 (50% inhibitory concentration, aldose reductase), d1-glyceraldehyde 3 mM, pH 6.2, 25° C., 2 minutes) is 9.5 nM. Further, in data set [1], the activity at 1 µM was 29%. In data set [3], the IC50 amounted to 10 nM and the “Ratio HPALR/HPAR” value is listed as over 1000. The inhibition at 10 µM in data set [4] was determined as 19.3%. Moreover, in data set [2], the “Accumulation … (%), Lens” value amounted to 39.1%; the “Accumulation … (%), Red Blood Cell” value amounted to 25.8%; the “Accumulation … (%), Nerve” value stood at 3.1%. Further, in the data set on ICR strain mice, the body weight entry is “progressed as in the control group” and the mice dead entry is given as “none”.
In the case of `O=C(O)CC1Sc2cc(F)ccc2N(Cc2nc3c(F)c(F)cc(F)c3s2)C1=O` (stereo not drawn) [Example 188, 2-[4-(4,5,7-Trifluorobenzothiazol-2-yl)methyl-7-fluoro-3,4-dihydro-3-oxo-2H-1,4-benzothiazin-2-yl]acetic acid], the IC50 at aldose reductase (setting [5]) amounted to 9.7 nM. For the same compound, in data set [1], the activity at 1 µM is 38%. For the same compound, in data set [3], the IC50 was 14 nM and the “Ratio HPALR/HPAR” value is over 714. Besides, in data set [4], the inhibition at 10 µM was 19.1%. Also, in data set [2], the “Accumulation … (%), Lens” value was 32.5%; the “Accumulation … (%), Red Blood Cell” value is reported as 15.7%; the “Accumulation … (%), Nerve” value is 0.0%. In the data set with ICR strain mice, the body weight result is “progressed as in the control group” and the mice dead entry is given as “none”.
At aldose reductase (setting [5]), `O=C(O)CC1Sc2ccccc2N(Cc2nc3c(F)c(F)ccc3s2)C1=O` (stereo not drawn) [Example 189, 2-[4-(4,5-Difluorobenzothiazol-2-yl)methyl-3,4-dihydro-3-oxo-2H-1,4-benzothiazin-2-yl]acetic acid] displayed an IC50 of 9.9 nM. Also, in data set [1], the activity at 1 µM was found to be 37%. Further, in data set [3], the IC50 worked out at 9.3 nM and the “Ratio HPALR/HPAR” value is reported as over 1075. In addition, in data set [4], the inhibition at 10 µM worked out at 18.5%. In data set [2], the “Accumulation … (%), Lens” value was 30.7%; the “Accumulation … (%), Red Blood Cell” value came out at 16.6%; the “Accumulation … (%), Nerve” value worked out at 1.1%.
